Consider 2 compounds from patent EP1311486B1, “USES OF THALIPORPHINE OR ITS DERIVATIVES IN TREATMENT OF CARDIAC DISEASES AND PREPARATION OF SAME” (Lotus Pharmaceutical Co., Ltd., priority 2000, dated 2002).

Test [1] deals with rats subjected to 4 hours coronary ligation. In words: Area at risk and infarct size after 4 hours coronary ligation (triphenyl tetrazolium chloride-Evan's blue staining). Type of test: in vivo, rat. Particulars: L-NAME 1x10^-3 g/kg. As to the method: Infarct size was determined by the triphenyl tetrazolium chloride-Evan's blue staining technique. The rat was sacrificed after its left descending coronary artery had been occluded for 4 hours. The weight of infarct tissue was expressed as a percentage of total ventricular weight or occluded zone. The difference in infarct size was statistically analyzed using unpaired Student's t-test. Table 4 Area at risk and infarct size in vehicle and THP-treated rats subjected to 4 hours coronary ligation
The difference in ischemic area and infarct size shown by staining technique after 4 hours of ischemia is evaluated. […] In the vehicle group, the necrotic area expresses either as a percentage of the area at risk (45.2±1.0%) or as a percentage of the total ventricle (19.8±2.2%), indicating the amount of cardiac tissue at risk becomes necrotic. Administration of THP reduces myocardial necrosis extension in a dose dependent manner. This reduction is observed either in the necrotic area/area at risk (38.1±5.0%, 29.0±2.5% and 10.7±1.8%/with 3.5x10^-7, 10^-6, 10^-5 g/kg of THP, respectively) or in the necrotic area/total ventricle (17.9+2.3%, 13.4±1.2% and 5.0±0.9% with 3.5x10^-7, 10^-6, 10^-5 g/kg of THP, respectively).

A further test relates to AV node conduction. Nature of the test: His bundle electrogram of isolated heart, Langendorff perfusion, atrial pacing at 300 ms cycle length. Set-up: species or system rats and guinea pigs. The following applies: for atrial effective refractory period (AERP): before drug THP 60 ms, quinidine 40 ms; for ventricular effective refractory period (VERP): before drug THP 160 ms, quinidine 180 ms; for AV node effective refractory period (AVNERP): before drug THP 170 ms, quinidine 130 ms; for wenckbach cycle length (WCL): before drug THP 200 ms, quinidine 150 ms. As to the method:
The investigation conforms to the Guide for the Care and Use of Laboratory Animals published by the US National Institutes of Health (NIH publication No. 85-23, revised 1996). Adult rats and guinea pigs were killed after hepariniation and anesthetization with urethane (1.25 g/kg i.p.). After isolating the heart, the aorta was perfused with 10µM quinidine and THP, respectively, by Langendorff perfusion. A pair of bipolar electrodes connected with silver wire were placed on the tip of the Triangle of Koch to record the His bundle electrogram. In addition, another pair of bipolar electrodes connected with silver wire were placed on the surface of the right ventricle to record T wave. […] The QT interval, conduction time through the sinoatrial (SA interval), the atrioventricular node (AH interval) and His-purkinje system (HV interval) were recorded, respectively, using electrocardiograph. Similarly, the recovery curve of His-purkinje system (i.e. the relationship of H2V2 and V1H2), atrial and ventricular refractory period and AV node refractory period were also recorded in the same manner. 1 and 2.
The SA, AH, HV intervals and T wave are prolonged in the quinidine-treated heart (FIG. 1). […] In addition, 3, 10 and 30µM THP can prolong the atrial effective refractory period (AERP) from 60 ms to 90, 100 and 120 ms, respectively; the ventricular effective refractory period (VERP) from 160 ms to 160, 170 and 190 ms, respectively; and the AV node effective refractory period (AVNERP) from 170 ms to 170, 200 and 240 ms, respectively. When compared with THP in the same manner, 3,10 and 30µM quinidine can prolong the AERP from 40 ms to 60, 80 and 130 ms; the VERP from 180 ms to 170, 180 and 190 ms; and the AVNERP from 130 ms to 150, 200 and 245 ms, respectively. Further, 3, 10 and 30µM THP can change the wenckbach cycle length (WCL) from 200 ms to 210, 230 and 280 ms, respectively; whereas 3, 10 and 30µM quinidine can change the WCL from 150 ms to 170, 210 and 300 ms, respectively. Both THP and quinidine prolong AERP, VERP and AVNERP, however, only quinidine inhibits conduction in AV node (prolonged AH interval). In contrast, even when the THP concentration raised to 10µM, the conduction in AV node is not inhibited.

The subject of test [2] is guinea pig right ventricular strips. In words: Ouabain-induced arrhythmia in electrically driven right ventricular strips. The following applies: 10-20µM after 0.6-0.8µM ouabain. As to the method: The arrhythmia was then induced 5-10 minutes after. 10-20µM THP or its derivatives were administered to reverse the ouabain-induced arrhythmia. 6-7.
Referring to FIGs. […] The arrhythmia is then induced 5-10 minutes after.

Turning to `COC(=O)[C@@H](N)CCCNC(=N)N[N+](=O)[O-]` [L-NAME, N^∞-nitro-L-arginine methyl ester, reference compound], in test [1], the “Area at risk (% of ventricle)” value is listed as 47.5±0.2 % of ventricle, the “Necrotic (% of Area at risk)” value is on record as 45.1±7.2 % of Area at risk and the “Necrotic (% of ventricle)” value is 21.4±3.5 % of ventricle.

With `C=C[C@H]1C[N@@]2CC[C@H]1C[C@@H]2[C@@H](O)c1ccnc2ccc(OC)cc12` [quinidine], in the test on AV node conduction (3µM), the “atrial effective refractory period (AERP)” value came out at 60 ms, the “ventricular effective refractory period (VERP)” value turned out to be 170 ms, the “AV node effective refractory period (AVNERP)” value turned out to be 150 ms and the “wenckbach cycle length (WCL)” value amounted to 170 ms. Further, in the test with AV node conduction (10µM, isolated perfused heart), the “AH interval (conduction in AV node)” value is “prolonged”, the HV interval result is “prolonged”, the SA interval entry is “prolonged” and the T wave result is given as “prolonged”. In the test on AV node conduction (10µM), the “atrial effective refractory period (AERP)” value was determined as 80 ms, the “ventricular effective refractory period (VERP)” value was 180 ms, the “AV node effective refractory period (AVNERP)” value was 200 ms and the “wenckbach cycle length (WCL)” value stood at 210 ms. Further, in the test on AV node conduction (30µM), the “atrial effective refractory period (AERP)” value is 130 ms, the “ventricular effective refractory period (VERP)” value stood at 190 ms, the “AV node effective refractory period (AVNERP)” value was 245 ms and the “wenckbach cycle length (WCL)” value worked out at 300 ms. Besides, the “reversal of ouabain-induced arrhythmia” value in test [2] is “does not reveal the efficacy”.
